Laboratory results reported in patent publication EP1263420B1 (priority 2000, dated 2001).

Experiments:
[1] = system: TGase II; assay: TGase II activity in cultured MCF-7 cells; type: cell-based, human
Method: MCF-7 cells were seeded at a density of 1.5 x 10^5 cells/ml medium (500ml DMEM + 56.2ml FBS + 5.6m1 AB/AM) in 6cm diameter dishes for 24 hours and treated with either DMSO, RA, or 13-cis RA at 10^-6 M and grown to confluence (about 72 hours). Cells were harvested and Transglutaminase II activity was measured as described below. Nebulizer solution, inhalation procedures, details of animal housing are described below.
Cultured cells were placed in 100 µl scraping buffer [A: 2800µl (400µl 0.5M Na-Phosphate, 500µl 0.01M EDTA, 100µl 1M DTT , 9ml PBS total 10ml) + B:700µl (10µl 20mg/ml PMSF 790µl PBS total 800µl)] for each dish. Cells were broken by a sonicator and kept in ice until used. TGase II assay was conducted as described below and previously {8217}.
Enzyme assay mixtures were prepared by adding 80µl of SUBSTRATE mixture (322.8µl H2O, 120µl 0.5M NaBorate, 60µl 0.01M EDTA, 60µl 0.1M CaCl2, 6µl 1M DTT, 240µl dimethyl casein, 30µl Triton X-100, 1.2µl [^3H]-Putrescine, 120µl Putrescine) to 20µl sample, 20µl scraping buffer for blank control , 20 µl (18µl scraping buffer + 2µl TGase II) for positive control. Samples were mixed in 15ml tubes, the tubes were shaken before putting them into a 28°C water bath for 30 minutes. Reactions were slowed down in an ice bath. 80µl of the incubation mixture was adsorbed onto paper disks. These were immediately dropped into cold 10% TCA (0.1% Putrescine) and washed with agitation for 7 minutes, followed by 2 additional washes with 5% TCA (0.05% putrescine) for 5~7 minutes, and once more with cold (-20°C) 95% ethanol for 5 minutes. Paper disks were dried and placed into 5ml Aquasol, and counted in a Liquid Scintillation Counter. Protein concentration determination was conducted by the Bradford method.

[2] = system: RARα; assay: RAR induction in lung of A/J mice exposed to isotretinoin aerosols (Western blot); type: in vivo; conditions: inhaled mid dose isotretinoin, urethane-treated A/J mice, relative to vehicle-exposed
Method: (§1) Antibodies: Polyclonal antibodies to RARα, β and γ (Santa Cruz Biotechnology Inc., San Francisco, CA) were used with a BM Chemiluminescence Western Blotting Kit (Mouse/Rabbit) (Boehringer Mannheim Corporation, Indianapolis).
(§2) Experimental Design: Five lungs each from the urethane-treated vehicle, low dose, and mid dose animals were snap frozen in liquid nitrogen and stored at -70°C for determination of RARs α, β and γ by Western Blot Analysis. In addition, five lungs each from urethane-injected unexposed mice, and untreated control mice were designated for Westerns. The lungs were homogenized and the RARs were determined by standard Western Blotting (21, 22). Due to deaths early in the high dose experiment, no lungs were available for Western Blot Analysis for the high dose exposures, i.e. all tissue was used for lesion quantitation purposes.
(§3) Samples: Lung tissue was collected, frozen on dry ice and kept at -70°C until used. A 500 mg portion was diced in small pieces and homogenized in 300 µl of cold PBS using a hand held homogenizer for 2-3 min. Samples were centrifuged at 500 rpm for 5 min or until the supernatant was clear. The pellet was suspended in 400 µl of cold Buffer A [2 µl 0.5 M EDTA, 10 µl 1 mM EGTA, 50 µl 100 mM PMSF, 10 µl 1M DTT, 10 ml (10 mM HEPES pH 7.9 + 10 mM KCl)], and left at ice temperature for 15 min. A 25 µl volume of 10% solution of NP-40 was added and the samples were mixed in a vortex vigorously for 10 sec. Samples were centrifuged at 14,000 rpm for 1 min at 4°C and the pellet was treated once more in this fashion. The supernatant was removed and 25 - 100 µl of Buffer C [4 µl 0.5 M EDTA, 20 µl 100 mM EGTA, 20 µl 0.1 M PMSF, 2 µl 1 M DTT, 2 ml (20 mM HEPES pH 7.9 + 0.4M NaCl)] was added. Pellets were resuspended by tapping gently on the bottom of the Eppendorf tube. Samples were rocked vigorously in a bucket of ice on an orbitor shaker for 30 min. Samples were centrifuged at 14,000 rpm for 5 min at 4°C. Supematants were kept frozen at -70°C until needed. Protein concentration determination was conducted by the Bradford method (23). […]

[3] = system: RARβ; assay: as above; type: in vivo; conditions: inhaled mid dose isotretinoin, urethane-treated A/J mice, relative to vehicle-exposed
Method: as §1, §2, §3

[4] = system: RARγ; assay: as above; type: in vivo; conditions: inhaled mid dose isotretinoin, urethane-treated A/J mice, relative to vehicle-exposed
Method: as §1, §2, §3

[5] = system: RARs; assay: RAR induction in lung of A/J mice exposed to isotretinoin aerosols, all three RARs; type: in vivo; conditions: lungs exposed to mid levels of isotretinoin, urethane-treated mice
Method: as §1, §2
Samples: Lung tissue was collected, frozen on dry ice and kept at -70°C until used. A 500 mg portion was diced in small pieces and homogenized in 300 µl of cold PBS using a hand held homogenizer for 2-3 min. Samples were centrifuged at 500 rpm for 5 min or until the supernatant was clear. The pellet was suspended in 400 µl of cold Buffer A [2 µl 0.5 M EDTA, 10 µl 1 mM EGTA, 50 µl 100 mM PMSF, 10 µl 1M DTT, 10 ml (10 mM HEPES pH 7.9 + 10 mM KCl)], and left at ice temperature for 15 min. […]

[6] = Body weight, mortality and toxicity of A/J mice exposed to isotretinoin aerosols; type: in vivo
Method: Mice were injected with one of three carcinogens and were exposed by inhalation in groups of 21 to three graded concentrations of isotretinoin or vehicle for 10 (urethane-treated mice) or 16 (NNK- and BaP-treated mice) weeks.
Male A/J mice (Jackson Laboratories) 6-8 weeks old were quarantined a minimum of 7 days. […] At 9-10 weeks of age, the mice were administered single 0.2 ml doses (20 mg urethane in saline, 0.6 mg of NNK in saline, or 2 mg of BaP in tricaprylin) by intraperitoneal injection. Daily 45-min exposures to isotretinoin aerosol or vehicle were started the next day.
Solutions were aerosolized using a Pari LC-plus nebulizer (Pari, Richmond, VA). Animals were exposed in nose-only exposure units designed to provide a fresh supply of the test atmosphere to each animal, independent from other animals. […] The units consisted of multi-tier modular sections, each tier containing eight exposure ports located peripherally around a central delivery plenum. During exposures, animals were restrained in unstoppered polycarbonate tubes (C&H Technologies, Westwood, NJ) through which a flow of aerosol, 350-500 ml/min per mouse, passed from the chamber. The tubes were tapered on one end to approximately fit the shape of the animal's head and the diameter of the cylindrical portion of the cone was such that the animals could not turn in the cones. Each cone was fastened to the inhalation chamber with the nose portion of the cone protruding through a gasket into the chamber, permitting the animal to breathe the test or control atmosphere emanating from within the central plenum.

[7] = system: urethane-induced lung cancer; conditions: orally administered, over 300 mg/kg weekly; cited from earlier work

CC1=C(/C=C/C(C)=C/C=C/C(C)=C\C(=O)O)C(C)(C)CCC1 [13-cis RA, 13-cis-Retinoic Acid]
fold induction at 1 µM ([1]; Homo sapiens, MCF7, 72 h, read-out: stimulating TGase II activity): 6.1
TGase II Activity ([1]; MCF-7 cells, 10^-6 M, 72 hours, DMSO control 0.183): 1.118 +/- 0.016 picomoles/µg protein/30 minutes
upregulated lung tissue RAR α over solvent [2]: 3.9 fold
upregulated lung tissue RAR β over solvent [3]: 3.3 fold
upregulated lung tissue RAR γ over solvent [4]: 3.7 fold
induction of all three RARs [5]: at least three fold
tolerated until (mice began losing weight) ([6]; mid dose): ~ 12 wks
weights below those of vehicle controls ([6]; mid dose, NNK- and BaP-treated mice, end of exposure): 11%
mortality ([6]; mouse, in vivo, inhaled or intranasal, 0.081 mg/kg, mid dose (2/63), read-out: mice died before the end of exposure): 3%
mortality at 336 h ([6]; mouse, in vivo, inhaled or intranasal, 2 mg/kg, high dose, daily exposures for the first two weeks, read-out: mice died): ~35%
prevention of urethane-induced lung cancer [7]: failed to prevent urethane-induced lung cancer
